Test [1] addresses Histone deacetylase 1 (Homo sapiens, UniProt Q13547).
Test [2] has as its target T1, Polyamine deacetylase HDAC10 (Homo sapiens, UniProt Q969S8).
T1 sequence (Q969S8 whole entry): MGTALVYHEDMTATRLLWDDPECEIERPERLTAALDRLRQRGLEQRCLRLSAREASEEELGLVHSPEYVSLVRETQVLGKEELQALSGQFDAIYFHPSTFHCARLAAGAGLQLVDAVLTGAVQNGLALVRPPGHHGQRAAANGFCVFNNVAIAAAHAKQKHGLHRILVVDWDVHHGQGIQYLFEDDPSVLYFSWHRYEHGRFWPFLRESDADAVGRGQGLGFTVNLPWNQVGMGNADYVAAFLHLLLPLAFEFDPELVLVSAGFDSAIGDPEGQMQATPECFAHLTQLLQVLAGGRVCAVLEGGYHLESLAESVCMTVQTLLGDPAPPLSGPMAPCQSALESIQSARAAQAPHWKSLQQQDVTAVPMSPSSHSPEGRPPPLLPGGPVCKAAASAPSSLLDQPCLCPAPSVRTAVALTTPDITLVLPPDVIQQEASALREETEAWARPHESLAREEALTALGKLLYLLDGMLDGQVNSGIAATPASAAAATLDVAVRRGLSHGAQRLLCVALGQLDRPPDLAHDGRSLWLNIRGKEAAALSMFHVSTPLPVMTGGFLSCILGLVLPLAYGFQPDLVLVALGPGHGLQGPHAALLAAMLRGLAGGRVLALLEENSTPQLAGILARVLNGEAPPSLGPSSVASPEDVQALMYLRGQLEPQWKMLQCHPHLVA
In words: Inhibition of human HDAC10.

Test [3] addresses T2, Histone deacetylase 7 (Homo sapiens, UniProt Q8WUI4).
T2 sequence (Q8WUI4 whole entry): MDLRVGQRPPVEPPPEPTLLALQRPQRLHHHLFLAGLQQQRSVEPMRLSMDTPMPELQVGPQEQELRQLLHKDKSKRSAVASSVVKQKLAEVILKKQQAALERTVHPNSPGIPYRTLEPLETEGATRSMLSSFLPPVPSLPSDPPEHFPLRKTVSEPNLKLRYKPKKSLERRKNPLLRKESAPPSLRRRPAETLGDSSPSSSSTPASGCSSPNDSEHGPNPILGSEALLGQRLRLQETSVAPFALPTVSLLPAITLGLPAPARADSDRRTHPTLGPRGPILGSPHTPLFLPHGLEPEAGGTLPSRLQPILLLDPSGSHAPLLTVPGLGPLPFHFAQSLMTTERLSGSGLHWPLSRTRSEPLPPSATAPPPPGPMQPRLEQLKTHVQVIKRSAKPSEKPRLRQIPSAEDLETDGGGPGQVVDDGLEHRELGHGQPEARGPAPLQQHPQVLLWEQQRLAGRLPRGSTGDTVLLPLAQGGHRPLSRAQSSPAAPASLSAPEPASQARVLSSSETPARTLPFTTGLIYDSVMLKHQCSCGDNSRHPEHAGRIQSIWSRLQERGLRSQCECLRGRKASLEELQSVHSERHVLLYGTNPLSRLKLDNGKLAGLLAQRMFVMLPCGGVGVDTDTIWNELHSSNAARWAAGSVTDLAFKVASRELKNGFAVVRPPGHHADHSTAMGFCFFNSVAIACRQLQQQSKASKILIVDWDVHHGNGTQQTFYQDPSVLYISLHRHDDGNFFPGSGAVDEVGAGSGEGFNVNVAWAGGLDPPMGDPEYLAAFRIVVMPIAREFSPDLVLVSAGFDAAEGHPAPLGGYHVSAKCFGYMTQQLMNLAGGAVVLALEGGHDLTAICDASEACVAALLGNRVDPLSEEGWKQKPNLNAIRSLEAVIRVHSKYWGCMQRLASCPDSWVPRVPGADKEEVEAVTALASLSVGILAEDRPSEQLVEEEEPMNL
In words: Inhibition of human HDAC7.

The target of test [4] is Histone deacetylase 9 (Homo sapiens, UniProt Q9UKV0). In words: Inhibition of human HDAC9.
Test [5] relates to NCI-H460. Kind of test: Cytotoxicity against human NCI-H460 cells after 48 hrs by SRB assay. It is filed as functional, cell-based. The note with it: NCI-H460, 48 h. A general note: Sulforhodamine B stains cellular protein and so reports cell mass.
The target of test [6] is T3, Protein deacetylase HDAC6 (Homo sapiens, UniProt Q9UBN7).
T3 sequence (Q9UBN7 whole entry): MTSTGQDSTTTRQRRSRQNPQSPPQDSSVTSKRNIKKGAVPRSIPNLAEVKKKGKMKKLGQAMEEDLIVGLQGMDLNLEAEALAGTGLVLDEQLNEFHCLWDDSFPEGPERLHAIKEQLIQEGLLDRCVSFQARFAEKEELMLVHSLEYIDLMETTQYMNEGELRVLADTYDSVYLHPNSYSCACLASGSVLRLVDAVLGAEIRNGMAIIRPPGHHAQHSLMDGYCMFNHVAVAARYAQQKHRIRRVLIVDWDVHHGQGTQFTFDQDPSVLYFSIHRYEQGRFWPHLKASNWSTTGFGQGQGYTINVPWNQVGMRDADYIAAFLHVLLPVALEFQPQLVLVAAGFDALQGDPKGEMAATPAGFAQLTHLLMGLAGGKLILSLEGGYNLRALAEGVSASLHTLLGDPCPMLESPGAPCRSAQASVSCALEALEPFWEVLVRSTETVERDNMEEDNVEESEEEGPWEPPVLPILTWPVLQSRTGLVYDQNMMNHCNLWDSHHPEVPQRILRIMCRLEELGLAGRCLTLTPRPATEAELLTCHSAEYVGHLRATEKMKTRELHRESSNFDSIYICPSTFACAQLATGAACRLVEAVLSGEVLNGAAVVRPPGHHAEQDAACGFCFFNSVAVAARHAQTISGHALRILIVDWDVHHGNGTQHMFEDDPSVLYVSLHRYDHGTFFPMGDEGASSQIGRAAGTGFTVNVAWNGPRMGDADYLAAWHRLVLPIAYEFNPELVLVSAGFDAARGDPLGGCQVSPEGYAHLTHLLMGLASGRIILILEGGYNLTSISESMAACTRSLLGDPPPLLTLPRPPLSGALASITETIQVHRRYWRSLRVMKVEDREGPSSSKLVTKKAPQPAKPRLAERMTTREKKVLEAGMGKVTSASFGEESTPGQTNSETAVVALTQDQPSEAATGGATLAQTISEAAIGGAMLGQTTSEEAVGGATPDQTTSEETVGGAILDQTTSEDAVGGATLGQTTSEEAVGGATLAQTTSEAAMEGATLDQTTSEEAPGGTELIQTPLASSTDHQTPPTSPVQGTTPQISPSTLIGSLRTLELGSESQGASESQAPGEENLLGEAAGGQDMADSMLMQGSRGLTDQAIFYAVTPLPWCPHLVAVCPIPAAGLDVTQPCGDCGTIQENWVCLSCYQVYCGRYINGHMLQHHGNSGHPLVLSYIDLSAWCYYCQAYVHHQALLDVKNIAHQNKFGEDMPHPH
Kind of test: Inhibition of human HDAC6.

Histone deacetylase 1, sequence (Q13547 whole entry): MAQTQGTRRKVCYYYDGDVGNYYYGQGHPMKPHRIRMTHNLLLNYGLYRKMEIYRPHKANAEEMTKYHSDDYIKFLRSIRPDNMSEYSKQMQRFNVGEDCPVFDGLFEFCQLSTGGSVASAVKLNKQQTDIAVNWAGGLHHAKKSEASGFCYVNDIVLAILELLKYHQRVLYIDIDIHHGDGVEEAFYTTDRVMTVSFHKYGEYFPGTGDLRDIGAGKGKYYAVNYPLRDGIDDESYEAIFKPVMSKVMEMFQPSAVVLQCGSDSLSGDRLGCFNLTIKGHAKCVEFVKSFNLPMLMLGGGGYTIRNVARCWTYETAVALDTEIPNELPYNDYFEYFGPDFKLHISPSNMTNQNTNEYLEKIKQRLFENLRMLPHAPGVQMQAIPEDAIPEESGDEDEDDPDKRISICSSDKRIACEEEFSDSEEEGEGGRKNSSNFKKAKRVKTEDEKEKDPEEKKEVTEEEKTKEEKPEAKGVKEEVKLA
Histone deacetylase 9, sequence (Q9UKV0 whole entry): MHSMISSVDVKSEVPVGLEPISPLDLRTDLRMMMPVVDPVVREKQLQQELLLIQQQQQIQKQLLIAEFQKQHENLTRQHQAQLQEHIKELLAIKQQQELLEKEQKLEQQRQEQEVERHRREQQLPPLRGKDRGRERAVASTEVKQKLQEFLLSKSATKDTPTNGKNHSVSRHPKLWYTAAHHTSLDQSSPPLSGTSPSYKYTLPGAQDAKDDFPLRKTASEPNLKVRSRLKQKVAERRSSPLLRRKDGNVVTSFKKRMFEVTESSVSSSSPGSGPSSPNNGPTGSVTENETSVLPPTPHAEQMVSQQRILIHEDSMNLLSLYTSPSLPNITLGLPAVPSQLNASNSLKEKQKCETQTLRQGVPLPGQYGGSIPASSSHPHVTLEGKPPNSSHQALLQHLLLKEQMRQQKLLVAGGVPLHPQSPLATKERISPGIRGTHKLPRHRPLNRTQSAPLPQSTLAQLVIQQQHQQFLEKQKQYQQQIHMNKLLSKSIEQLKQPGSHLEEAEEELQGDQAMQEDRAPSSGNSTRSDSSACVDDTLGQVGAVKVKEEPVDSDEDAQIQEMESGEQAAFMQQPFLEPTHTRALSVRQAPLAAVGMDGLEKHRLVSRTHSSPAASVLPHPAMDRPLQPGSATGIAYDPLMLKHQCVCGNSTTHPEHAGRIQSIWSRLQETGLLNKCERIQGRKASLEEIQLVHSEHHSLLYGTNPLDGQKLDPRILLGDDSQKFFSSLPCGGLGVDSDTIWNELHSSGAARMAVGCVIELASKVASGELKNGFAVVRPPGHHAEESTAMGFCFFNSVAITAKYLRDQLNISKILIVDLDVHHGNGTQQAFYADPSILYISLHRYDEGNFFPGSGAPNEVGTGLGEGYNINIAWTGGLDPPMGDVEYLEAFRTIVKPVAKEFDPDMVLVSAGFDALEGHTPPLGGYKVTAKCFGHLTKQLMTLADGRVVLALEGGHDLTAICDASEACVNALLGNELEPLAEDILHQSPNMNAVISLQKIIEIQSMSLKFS

`O=C(/C=C/c1ccc(/C=N/OCc2ccc([N+](=O)[O-])cc2)cc1)NO`: the IC50 in test [1] was found to be 0.79 µM; in test [2], 1.58 µM; in test [3] it was 2.3 µM; in test [4] it was 2.47 µM; in test [5], 2.6 µM; in test [6], 0.124 µM.

For orientation: IC50 means the concentration that inhibits the measured activity by half. Higher therefore signals lower potency.
